Three compounds from patent US10443054B2, “Methods for identifying and treating invasive/metastatic breast cancers” (Massachusetts Institute of Technology, priority 2016, dated 2019) can be followed below.

Data set [1] has as its system MDA-MB-231 cells. As to the kind of experiment: Inverted invasion assay through matrigel towards EGF. To be noted: nuclei of invading cells above 40 μm.
The test system of data set [2] is LM2 cells. Kind of data set: Extravasation (experimental lung) metastasis assay, tail vein injection. The format is in vivo, mice. Conditions: LM2 cells stably expressing shRNA injected via tail vein, 28 days; vs Ctrl-shRNA. As to the method: For the experimental lung metastasis assay, 5×10^4 cells in 100 μl of Hank's Balanced Salt Solution were injected into the lateral tail vein of 6- to 8-week-old female NOD/SCID/IL2RV-null mice. The mice were sacrificed 28 days post-injection and lungs were inflated with 3.8% formaldehyde imaged with a fluorescence microscope and subsequently fixed overnight with 3.8% formaldehyde. ZsGreen-positive foci were counted in the left pulmonary lobe using ImageJ and counts were manually curated as needed.

For `CNC(=O)[C@H](Cc1c[nH]c2ccccc12)NC(=O)[C@@H](CC(=O)NO)CC(C)C` [MMP inhibitor, GM6001], the “invasion of Lpd overexpressing cells” value in data set [1] (MDA-MB-231 expressing GFP-Lpd, 10 μM GM6001 vs DMSO) is “reduced invasion”. Also, in data set [1] (MDA-MB-231 expressing GFP, 10 μM GM6001 vs DMSO), the “invasion of GFP expressing control cells” value is “reduced invasion”.
With “Lpd-shRNA2: shRNA targeting human Lpd, TTCCCATACTTTGCAATGCGG”, the “number of ZsGreen-positive metastatic foci in the left pulmonary lobe” value in data set [2] is reported as “not significant”.
On to `Cc1ccc(NC(=O)c2ccc(CN3CCN(C)CC3)cc2)cc1Nc1nccc(-c2cccnc2)n1` [ST1571, STI-571], for which the “breast cancer cell invasiveness towards EGF” value in data set [1] (MDA-MB-231, Dasatinib 10 nM, STI571 10 μM, 72 hours vs DMSO) was “impaired”.
